Assay results: the NIST ThermoML archive (doi:10.1016/j.fluid.2013.01.011)
± gives the expanded uncertainty stated by the source.

What was measured:
[1] = excess molar enthalpy (molar enthalpy of mixing); xn = mol fraction of the nth substance listed; details: 298.15 K, 101 kPa, Liquid, Calvet calorimetry
[2] = 298.15 K; 101.33 kPa; Liquid; Vibrating tube method

In the case of `CCCNCCC` [dipropylamine] + CCCCCC(C)=O, the excess molar enthalpy ([1]; x1 = 0.1145) is reported as 0.0112 ± 0.000478 kcal/mol, the excess molar enthalpy ([1]; x1 = 0.212) is reported as 0.021 ± 0.000478 kcal/mol and the excess molar enthalpy ([1]; x1 = 0.3072) is reported as 0.0282 ± 0.000717 kcal/mol. For the same compound, the excess molar enthalpy ([1]; x1 = 0.4034) was 0.0342 ± 0.000717 kcal/mol, the excess molar enthalpy ([1]; x1 = 0.4993) was 0.0387 ± 0.000956 kcal/mol and the excess molar enthalpy ([1]; x1 = 0.6017) was 0.0406 ± 0.000956 kcal/mol. It also gave an excess molar enthalpy ([1]; x1 = 0.6872) of 0.038 ± 0.000956 kcal/mol, an excess molar enthalpy ([1]; x1 = 0.7868) of 0.0327 ± 0.000717 kcal/mol and an excess molar enthalpy ([1]; x1 = 0.8796) of 0.0229 ± 0.000478 kcal/mol.
Work on `CCCCNCCCC` [dibutylamine] + CCCC(C)=O yielded an excess molar enthalpy ([1]; x1 = 0.1111) of 0.0406 ± 0.000956 kcal/mol, an excess molar enthalpy ([1]; x1 = 0.2106) of 0.0684 ± 0.00143 kcal/mol and an excess molar enthalpy ([1]; x1 = 0.3072) of 0.0908 ± 0.00191 kcal/mol. For the same compound, the excess molar enthalpy ([1]; x1 = 0.3973) was 0.102 ± 0.00215 kcal/mol, the excess molar enthalpy ([1]; x1 = 0.4942) was 0.108 ± 0.00239 kcal/mol and the excess molar enthalpy ([1]; x1 = 0.6052) was 0.104 ± 0.00239 kcal/mol. For the same compound, the excess molar enthalpy ([1]; x1 = 0.6999) was 0.0937 ± 0.00215 kcal/mol, the excess molar enthalpy ([1]; x1 = 0.7881) was 0.0762 ± 0.00167 kcal/mol and the excess molar enthalpy ([1]; x1 = 0.8848) was 0.0485 ± 0.0012 kcal/mol.
With `CCCCNCCCC` [dibutylamine] the mass density [2] was 755.528 ± 0.16 kg/m3.
Work on `CC(C)=O` [acetone] yielded a mass density [2] of 785.094 ± 0.13 kg/m3.
In the case of `CCCCNCCCC` [dibutylamine] + CC(C)=O, the excess molar enthalpy ([1]; x1 = 0.1101) is reported as 0.106 ± 0.00239 kcal/mol, the excess molar enthalpy ([1]; x1 = 0.2103) is reported as 0.165 ± 0.00359 kcal/mol and the excess molar enthalpy ([1]; x1 = 0.2999) is reported as 0.204 ± 0.0043 kcal/mol. For the same compound, the excess molar enthalpy ([1]; x1 = 0.398) was 0.22 ± 0.00478 kcal/mol, the excess molar enthalpy ([1]; x1 = 0.4977) was 0.224 ± 0.00478 kcal/mol and the excess molar enthalpy ([1]; x1 = 0.6088) was 0.206 ± 0.00454 kcal/mol. The excess molar enthalpy ([1]; x1 = 0.6999) was 0.181 ± 0.00382 kcal/mol, the excess molar enthalpy ([1]; x1 = 0.79) was 0.143 ± 0.00311 kcal/mol and the excess molar enthalpy ([1]; x1 = 0.8913) was 0.0827 ± 0.00191 kcal/mol.
`CCCNCCC` [dipropylamine] + CCCC(C)=O gave an excess molar enthalpy ([1]; x1 = 0.1056) of 0.0208 ± 0.000478 kcal/mol, an excess molar enthalpy ([1]; x1 = 0.1981) of 0.0368 ± 0.000956 kcal/mol and an excess molar enthalpy ([1]; x1 = 0.3098) of 0.0519 ± 0.0012 kcal/mol. The excess molar enthalpy ([1]; x1 = 0.3988) was 0.0621 ± 0.00143 kcal/mol, the excess molar enthalpy ([1]; x1 = 0.5023) was 0.0672 ± 0.00143 kcal/mol and the excess molar enthalpy ([1]; x1 = 0.5922) was 0.0679 ± 0.00143 kcal/mol. It also gave an excess molar enthalpy ([1]; x1 = 0.6821) of 0.0638 ± 0.00143 kcal/mol, an excess molar enthalpy ([1]; x1 = 0.781) of 0.0545 ± 0.0012 kcal/mol and an excess molar enthalpy ([1]; x1 = 0.8693) of 0.0382 ± 0.000956 kcal/mol.
`CCCC(C)=O` [pentan-2-one] showed a mass density [2] of 801.522 ± 0.24 kg/m3.
Compound `CCCCCC(C)=O` [2-heptanone] has a mass density [2] of 811.162 ± 0.24 kg/m3.
`CCCNCCC` [dipropylamine] showed a mass density [2] of 733.723 ± 0.25 kg/m3.
With `CCCNCCC` [dipropylamine] + CC(C)=O the excess molar enthalpy ([1]; x1 = 0.1063) was 0.0652 ± 0.00143 kcal/mol, the excess molar enthalpy ([1]; x1 = 0.2076) was 0.113 ± 0.00239 kcal/mol and the excess molar enthalpy ([1]; x1 = 0.3036) was 0.14 ± 0.00311 kcal/mol. It also gave an excess molar enthalpy ([1]; x1 = 0.3982) of 0.151 ± 0.00335 kcal/mol, an excess molar enthalpy ([1]; x1 = 0.4932) of 0.153 ± 0.00335 kcal/mol and an excess molar enthalpy ([1]; x1 = 0.5821) of 0.147 ± 0.00311 kcal/mol. The excess molar enthalpy ([1]; x1 = 0.6773) was 0.129 ± 0.00287 kcal/mol, the excess molar enthalpy ([1]; x1 = 0.7652) was 0.104 ± 0.00215 kcal/mol and the excess molar enthalpy ([1]; x1 = 0.8488) was 0.0707 ± 0.00167 kcal/mol.
For `CCCCNCCCC` [dibutylamine] + CCCCCC(C)=O, the excess molar enthalpy ([1]; x1 = 0.1114) was 0.0206 ± 0.000478 kcal/mol, the excess molar enthalpy ([1]; x1 = 0.2189) was 0.0392 ± 0.000956 kcal/mol and the excess molar enthalpy ([1]; x1 = 0.3057) was 0.0519 ± 0.0012 kcal/mol. The excess molar enthalpy ([1]; x1 = 0.4038) was 0.0607 ± 0.00143 kcal/mol, the excess molar enthalpy ([1]; x1 = 0.5087) was 0.0664 ± 0.00143 kcal/mol and the excess molar enthalpy ([1]; x1 = 0.5962) was 0.0664 ± 0.00143 kcal/mol. It also gave an excess molar enthalpy ([1]; x1 = 0.7053) of 0.0612 ± 0.00143 kcal/mol, an excess molar enthalpy ([1]; x1 = 0.8017) of 0.0497 ± 0.0012 kcal/mol and an excess molar enthalpy ([1]; x1 = 0.8891) of 0.033 ± 0.000717 kcal/mol.
For `CCC(C)=O` [butanone], the mass density [2] was 799.969 ± 0.15 kg/m3.
Compound `CCCNCCC` [dipropylamine] + CCC(C)=O has an excess molar enthalpy ([1]; x1 = 0.1042) of 0.037 ± 0.000956 kcal/mol, an excess molar enthalpy ([1]; x1 = 0.1978) of 0.0605 ± 0.00143 kcal/mol and an excess molar enthalpy ([1]; x1 = 0.3016) of 0.0798 ± 0.00167 kcal/mol. For the same compound, the excess molar enthalpy ([1]; x1 = 0.3852) was 0.0884 ± 0.00191 kcal/mol, the excess molar enthalpy ([1]; x1 = 0.495) was 0.0949 ± 0.00215 kcal/mol and the excess molar enthalpy ([1]; x1 = 0.5459) was 0.0946 ± 0.00215 kcal/mol. It also gave an excess molar enthalpy ([1]; x1 = 0.5908) of 0.0937 ± 0.00215 kcal/mol, an excess molar enthalpy ([1]; x1 = 0.6833) of 0.0851 ± 0.00191 kcal/mol and an excess molar enthalpy ([1]; x1 = 0.7647) of 0.0715 ± 0.00167 kcal/mol. It also gave an excess molar enthalpy ([1]; x1 = 0.8559) of 0.0488 ± 0.0012 kcal/mol.
With `CCCCNCCCC` [dibutylamine] + CCC(C)=O the excess molar enthalpy ([1]; x1 = 0.1142) was 0.0655 ± 0.00143 kcal/mol, the excess molar enthalpy ([1]; x1 = 0.2078) was 0.102 ± 0.00215 kcal/mol and the excess molar enthalpy ([1]; x1 = 0.2985) was 0.128 ± 0.00287 kcal/mol. For the same compound, the excess molar enthalpy ([1]; x1 = 0.3978) was 0.144 ± 0.00311 kcal/mol, the excess molar enthalpy ([1]; x1 = 0.4956) was 0.148 ± 0.00311 kcal/mol and the excess molar enthalpy ([1]; x1 = 0.6001) was 0.142 ± 0.00311 kcal/mol. The excess molar enthalpy ([1]; x1 = 0.693) was 0.126 ± 0.00263 kcal/mol, the excess molar enthalpy ([1]; x1 = 0.7846) was 0.0997 ± 0.00215 kcal/mol and the excess molar enthalpy ([1]; x1 = 0.8802) was 0.0645 ± 0.00143 kcal/mol.
